Data as given in the supplement of paper PMC11451515.

Assays:
Assay in all cases: AUC of viability dose-response curve (% viability x log10 dose units); higher = less sensitive
Conditions in all cases: 48 h
[1] = system: NOMO1
In short: (§1)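 Viability of medium-adapted leukemia cells was measured by CellTiter-Glo One luminescence after 48 h at 37°C with library compounds in DMSO. Doses were 11 threefold steps from 47 μM to 0.79 nM, in 1536-well plates at 500 or 1000 cells/well. Signals were normalised per plate to DMSO and cell-free wells and fitted with a four-parameter log-logistic model on log10 dose. Area under the curve was integrated by trapezoidal rule, with curves exceeding full viability scaled and failed quality-control curves removed.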

[2] = system: SEM cells
In short: as §1

[3] = system: P12-Ichikawa
In short: as §1

[4] = RPMI 5 mM glucose + 10% dialyzed FBS

SMILES	AUC of viability dose-response curve ([1]; HPLM + 10% dialyzed FBS)	AUC of viability dose-response curve ([1]; RPMI 5 mM glucose + 10% FBS)	AUC of viability dose-response curve [1, 4]	AUC of viability dose-response curve ([2]; HPLM + 10% dialyzed FBS)	AUC of viability dose-response curve ([2]; RPMI 5 mM glucose + 10% FBS)	AUC of viability dose-response curve [2, 4]	AUC of viability dose-response curve ([3]; HPLM + 10% dialyzed FBS)	AUC of viability dose-response curve ([3]; RPMI 5 mM glucose + 10% FBS)	AUC of viability dose-response curve [3, 4]
COc1cc(C(C)=O)ccc1OCCCN1CCC(c2noc3cc(F)ccc23)CC1	468	468	464	468	446	455	470	472	471
O=C(/C=C/c1cccc([S+](=O)([O-])Nc2ccccc2)c1)NO	396	402	397	284	277	289	362	352	365
CCC1(c2ccc(N)cc2)CCC(=O)NC1=O (stereo not drawn)	463	473	465	433	424	401	449	427	434
O=C(/C=C/c1c(C(=O)[O-])[nH]c2cc(Cl)cc(Cl)c12)Nc1ccccc1	471	444	462	466	466	463	466	464	467
COc1cc2nc(N3CCCN(C)CC3)nc(NC3CCN(Cc4ccccc4)CC3)c2cc1OC	378	406	384	389	416	419	407	401	385
C\C1=C\N([C@H]2C[C@H](N=[N+]=[N-])[C@@H](CO)O2)C(=O)NC1=O	365	339	362	388	434	425	419	425	452
Oc1ccc(/C=C/c2cc(O)cc(O)c2)cc1	425	457	450	450	417	441	462	457	444
C[C@@]12O[C@@H](C[C@]1(O)CO)n1c3ccccc3c3c4c(c5c6ccccc6n2c5c31)CNC4=O	313	326	324	251	217	228	326	311	311
O=C1C[C@@H](c2ccc(O)cc2)Oc2cc(O)cc(O)c21	437	476	458	468	382	470	433	462	456
CCC[C@H](N[C@@H](C)C(=O)N1[C@H](C(=O)O)C[C@@H]2CCCC[C@@H]21)C(=O)OCC	394	439	399	469	469	466	454	433	438
CC(=O)C\1=C(/C)C2=CN=C(NC3=CC=C(C=N3)N4CCNCC4)N=C2N(C5CCCC5)C1=O	424	429	406	357	378	365	420	400	392
CNC1[C@@H](O)C(O[C@@H]2C(O)C(O[C@H]3O[C@H]([C@@H](C)NC)CC[C@H]3N)[C@@H](N)C[C@H]2N)OC[C@]1(C)O (stereo partly drawn)	446	448	415	459	421	472	462	444	436
Cc1cccc(-c2nn(C(=S)Nc3ccccc3)cc2-c2ccnc3ccccc23)n1	431	461	456	465	455	456	440	444	437
Cc1cccc(C#Cc2ccccc2)n1	461	464	463	456	455	449	456	445	450
CC1(C)CCC(=C(CN2CCN(CC2)C3=CC=C(C=C3)C(=O)N[S+]([O-])(=O)C4=CC(=C(N[C@H](CCN5CCOCC5)CSC6=CC=CC=C6)C=C4)[S+]([O-])(=O)C(F)(F)F)\C1)/C7=CC=C(Cl)C=C7	357	332	291	216	197	197	235	240	259
[NH2][Pt]([NH2])([Cl])[Cl]	456	421	445	429	419	380	470	449	433

SMILES	AUC of viability dose-response curve ([1]; HPLM + 10% dialyzed FBS)	AUC of viability dose-response curve ([1]; RPMI 5 mM glucose + 10% FBS)	AUC of viability dose-response curve [1, 4]	AUC of viability dose-response curve ([2]; HPLM + 10% dialyzed FBS)	AUC of viability dose-response curve ([2]; RPMI 5 mM glucose + 10% FBS)	AUC of viability dose-response curve [2, 4]	AUC of viability dose-response curve ([3]; HPLM + 10% dialyzed FBS)	AUC of viability dose-response curve ([3]; RPMI 5 mM glucose + 10% FBS)	AUC of viability dose-response curve [3, 4]
CC(C)C[C@H](NC(=O)[C@@H](NC(=O)c1cccc(-c2ccccc2)n1)[C@@H](C)O)B(O)O	212	218	230	155	149	149	197	184	201
CCOc1ccc(Nc2nc(-c3c(C)nc4ccccn34)cs2)cc1	270	252	281	232	213	263	225	232	271
CCn1c(-c2nonc2N)nc2cncc(CNC3CCNCC3)c21	419	437	443	414	357	417	399	424	411
CC(=O)N1CCN(c2ccc(OC[C@H]3CO[C@](Cn4ccnc4)(c4ccc(Cl)cc4Cl)O3)cc2)CC1	437	456	470	391	340	336	449	456	452
O=C(O)c1ccc(-n2nc(-c3ccccc3O)nc2-c2ccccc2O)cc1	441	442	408	427	408	415	433	422	422
CN(C/C=C/C#CC(C)(C)C)Cc1cccc2ccccc12	458	440	447	452	450	455	475	468	444
Cc1cc(Nc2nc(N[C@@H](C)c3ncc(F)cn3)ncc2Cl)n[nH]1	363	408	422	399	336	365	421	454	425
CCOC(=O)N1CCN(/[N+]([O-])=N/Oc2ccc([N+](=O)[O-])cc2[N+](=O)[O-])CC1	462	429	412	303	324	337	447	425	398
O=C(CO)N1CCC(c2n[nH]c(-c3ccc(Cl)cc3)c2-c2ccncn2)CC1	438	453	446	411	403	404	441	420	423
COc1cc(O)c2c(c1)C1OC1C[C@H](O)[C@H](O)C(=O)/C=C\C[C@H](C)OC2=O (stereo partly drawn)	418	427	427	394	394	384	443	441	442
Oc1ccc(C2CCN(c3ccnc4ccccc34)CC2)cc1O	445	457	467	399	386	404	427	418	408
O=C(Nc1cccc(Nc2ncc(Br)c(NCCc3cnc[nH]3)n2)c1)N1CCCC1	349	342	369	213	203	191	318	294	344
CC1(C)OC2CC3C4CC(F)C/5=C/C(=O)/C=C\C5(C)C4C(O)CC3(C)[C@@]2(O1)C(=O)CO (stereo partly drawn)	454	465	456	386	360	354	390	340	325
CC(=O)Nc1ccc([C@H](C)C(=O)Nc2ncc(C(C)C)s2)cc1	397	365	386	390	393	387	403	411	408
NC(=O)c1ncn([C@@H]2O[C@H](CO)[C@@H](O)[C@H]2O)n1	354	403	380	471	453	471	447	424	423
Cc1ncc(OC[C@@]2(c3cccc(F)c3)C[C@H]2C(=O)Nc2ccc(F)cn2)c(C)n1	476	474	464	444	435	452	455	474	470
